Values of other authors as cited in patent publication EP2517696A1, “Extended release memantine tablet” (Ali Raif Ilaç Sanayi ve Ticaret Anonim Sirketi, priority 2011, dated 2012).
Where a name gives a salt, the structure may show the parent alone.

Legend:
[1] = high dissolution and permeability
[2] = in vivo

- BCS class [1]: BCS 1 class
- absolute bioavailability [2]: 100%
Compound: CC12CC3CC(C)(C1)CC(N)(C3)C2 [Memantine HCl, 3,5 dimethyl-1-adamantamine hydrochloride]
